One block for each molecule: values may come before it.
Legend:
PAR2 [1] = target: T1, PAR2 (Mus musculus, UniProt P55086); assay: Intracellular calcium mobilization in MIN6 beta cells; assay type: cell-based; conditions: concentration-dependent
T1 construct: endogenous in cells; host or cells: MIN6 (mouse pancreatic beta cell line)
T1 sequence (P55086 26-399): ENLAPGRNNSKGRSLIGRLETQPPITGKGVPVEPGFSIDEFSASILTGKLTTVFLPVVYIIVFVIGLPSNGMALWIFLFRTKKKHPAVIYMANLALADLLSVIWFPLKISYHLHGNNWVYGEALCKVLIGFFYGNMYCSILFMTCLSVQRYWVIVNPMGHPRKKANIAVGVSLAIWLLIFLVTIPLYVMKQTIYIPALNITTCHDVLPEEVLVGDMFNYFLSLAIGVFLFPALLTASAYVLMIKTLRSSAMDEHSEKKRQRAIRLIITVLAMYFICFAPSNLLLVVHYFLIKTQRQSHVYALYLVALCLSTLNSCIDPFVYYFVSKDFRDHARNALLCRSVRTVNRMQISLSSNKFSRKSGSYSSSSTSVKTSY
Procedure: Results: Pathogenesis of pancreatic dysfunction is linked to chronic nutritional surplus and elevated fatty acids, so in vivo and in vitro effects of compound 52 were evaluated on rat pancreas and mouse MIN6 beta cells. […] PAR2 agonists and compound 52 were further evaluated in vitro for glucose-stimulated insulin secretion (GSIS) and intracellular calcium mobilization in mouse MIN6 beta cells.

MIN6 beta cells = assay: Glucose-stimulated insulin secretion (GSIS); assay type: cell-based, mouse; conditions: 52 as pre-treatment before 2f-LIGRLO-NH2
Procedure: Rat pancreas and mouse MIN6 beta cells were cultured in DMEM (25 mM glucose) supplemented with 15% fetal calf serum, 10 U/mL penicillin, 10 U/mL streptomycin, 2 mM L-glutamine and […] 2-mercaptoethanol. MIN6 beta cells were passaged and harvested using non-enzymatic cell dissociation solution (Sigma-Aldrich). Glucose-stimulated insulin secretion (GSIS) was performed as described next. MIN6 beta cells were seeded at 0.8×106 mL in a 96-well plate and cultured for 48 h. Cells were washed twice with glucose-free Krebs buffer (NaCl 119 mM, KCl 4.74 mM, CaCl2 2.54 mM, MgCl2 1.19 mM, KH2PO4 1.19 mM, NaHCO3 25 mM, HEPES (pH 7.4) 10 mM and 0.05% BSA). Cells were pre-treated with compound 52 for 30 min with Krebs buffer supplemented with 2.5 mM glucose. After incubation, cells were washed twice with glucose-free Krebs buffer. Glucose (2.5 mM and 25 mM) and compounds were added at specified concentration and incubated for 1 h. Supernatants were collected and insulin concentrations were determined by ELISA (Abeam).

PAR2 [2] = target: T2, PAR2 (Homo sapiens, UniProt P55085); assay: Colonocyte modulation: intracellular calcium mobilization in HT29 cells; assay type: cell-based; parameters: endogenous in cells; host or cells: HT29 (human colorectal adenocarcinoma); conditions: HT29 colonocytes, 15 min before 2Furoyl-LIGRLO-NH2
T2 sequence (P55085 26-397): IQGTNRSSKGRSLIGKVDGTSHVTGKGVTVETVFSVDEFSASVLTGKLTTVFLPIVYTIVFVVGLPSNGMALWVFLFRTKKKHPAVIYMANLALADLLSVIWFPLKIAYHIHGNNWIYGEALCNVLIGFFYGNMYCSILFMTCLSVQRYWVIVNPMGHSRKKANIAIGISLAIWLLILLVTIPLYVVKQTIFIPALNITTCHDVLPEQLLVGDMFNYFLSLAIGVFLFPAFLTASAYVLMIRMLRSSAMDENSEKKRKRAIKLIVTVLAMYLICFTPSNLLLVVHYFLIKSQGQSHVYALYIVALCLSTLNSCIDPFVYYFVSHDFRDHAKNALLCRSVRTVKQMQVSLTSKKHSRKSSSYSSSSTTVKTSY
Procedure: Human colorectal adenocarcinoma (HT29) cells were incubated with a calcium binding dye ([…]) buffer for 1 h at 37° C. […] Intracellular calcium mobilization was measured by differences in fluorescence plotted against corresponding antagonist concentrations, enabling the determination of antagonist potency.

[3] = test system: 2furoyl-LIGRLO-NH2-induced paw oedema; assay: PAR2 agonist-induced paw oedema; assay type: in vivo, Wistar rat; conditions: s.c.; 52 10 mg/kg, ENMD-1068 100 mg/kg; agonist 350 μg/paw
Procedure: The methods used are based on those previously described (Kelso, E. B., et al. Arthritis Rheum 2007, 56, 765-71; Kelso, E. B., et al. J Pharmacol Exp Ther 2006, 316, 1017-24; and Vergnolle, N. J Immunol 1999, 163, 5064-9). Male Wistar rats (n=3 per group) are used. Briefly, rats are given either 5 or 10 mg/kg of a compound of the present invention (p.o. via gavage in olive oil, approx. 500 μL, weight adjusted). Control animals receive only olive oil (500 μL p.o.). Two hours later, the PAR2 agonist 2-furoyl-LIGRLO (350 μg/paw in saline, 100 μL) is injected into the plantar surface (i.pl.) of the right paw pad using a 30 G needle. The left paw acts as a control, receiving saline only. Paw thickness and width are measured after 30 minutes and hourly using digital calipers (World Precision Instruments, USA) and swelling is calculated in area (mm^2; thickness multiplied by width) and expressed as a percentage change from baseline of each individual paw.
Based on previous methods (Kelso E B et al., J Pharmacol Exp Ther 2006, 316(3):1017-24; Suen J Y et al., Br J Pharmacol 2011, doi: 10.1111/j.1476-5381.2011.01610.x.), PAR2 antagonist 52 (10 mg/kg s.c.; n=4), ENMD-1068 (100 mg/kg s.c.; n=4) or vehicle control (DMSO s.c.; n=2) were administered to male Wistar rats. Baseline paw thickness and width were measured using digital calipers (World Precision Instruments, USA) expressed in area (mm^2; thickness×width). Fifteen minutes later, 2Furoyl-LIGLRO-NH2 (350 μg/paw in 100 μL saline) was injected into of the right hind paw pad (intraplantar, i.pl.). The left hind paw acted as a control, receiving saline only. In a separate experiment, vehicle (500 μL olive oil) versus PAR2 antagonist 52 (10 mg/kg p.o. in 500 μL olive oil) only were administered orally to two groups of rats (4 per group). Two hours later, β-tryptase (human recombinant lung, 20 μg in 100 μL saline) was injected into the right hind paw pad (vehicle in left for control) of all animals in each group. In all experiments, paw swelling was measured and expressed in area (mm^2; thickness×width) and plotted as % change from baseline of each individual paw.

[4] = test system: human monocyte derived macrophages (HMDMs); assay: Palmitic acid stimulation of human monocyte derived macrophages; assay type: cell-based
Procedure: To investigate if PAR2 is specifically linked to macrophage inflammation, the effect of palmitic acid on mRNA levels of PARs on human monocyte derived macrophages (HMDMs) was measured (FIG. 12). […] The increase of PAR2 mRNA in HMDM in the presence of palmitic acid was dose-dependent (FIG. 12B). Fold change in PAR2 was calculated relative to untreated sample. FIGS. 12C and D illustrate that palmitic acid stimulates proinflammition cytokines, IL-6 and IL-8, secretion from HMDM. Error bars are means±SEM; *P<0.05, **P<0.01, ***P<0.001.

intracellular calcium release in MIN6 beta cells (PAR2 [1]): activated intracellular calcium release
Molecule: 2f-LIGRLO-NH2 [reference compound]
glucose-stimulated insulin secretion (MIN6 beta cells): inhibited glucose stimulated insulin sensitivity

IC50 (PAR2 [2]): 5 mM
Molecule: CC(C)CC(=O)N1CCN(C(=O)CCCCCN)CC1 [ENMD-1068, N1-3-methylbutyryl-N4-6-aminohexanoyl-piperazine, reference compound]
paw oedema induced by 2furoyl-LIGRLO-NH2 [3]: had no effect

Molecule: CCCCCCCCCCCCCCCC(=O)O [palmitic acid]
IL-6 and IL-8 secretion from HMDM [4]: stimulates
increase in mRNA concentrations of PAR2 ([4]; HMDM, concentration dependent, relative to untreated): < 20 fold

Reference: US9868763B2, “Modulators of protease activated receptors” (The University of Queensland, priority 2011, dated 2018)
